Data on one compound can be found in article PMC4664966, “Discovery and characterization of novel inhibitors of the sodium-coupled citrate transporter (NaCT or SLC13A5)” (Scientific Reports, 2015).

Holding throughout (test): Selectivity data (Table S1)
For data set [1], the target named is Mitogen-activated protein kinase 14 (MAPK14 / P38-alpha) (Homo sapiens, UniProt Q16539). Format: biochemical.
Data set [2] concerns the target Histamine receptor 2 (H2) (Homo sapiens, UniProt P25021). Format: binding.
Data set [3] addresses Adrenergic receptor, alpha-2B (ADRA2B) (Homo sapiens, UniProt P18089). Format: binding.
Data set [4] has as its target Phosphodiesterase 4D (PDE4D) (Homo sapiens, UniProt Q08499). Format: biochemical.
For data set [5], the target named is Adenosine receptor A1 (ADORA1) (Homo sapiens, UniProt P30542). Format: binding.
The target in a further data set is CYP1A2 (Homo sapiens, UniProt P05177). Format: in vitro ADME. To be noted: 3 µM.
The target of data set [6] is Cytochrome P450 1A2 (CYP1A2) (Homo sapiens, UniProt P05177). The format is in vitro ADME.

SMILES strings stand for the structures.

Chain of CYP1A2 (P05177 whole entry): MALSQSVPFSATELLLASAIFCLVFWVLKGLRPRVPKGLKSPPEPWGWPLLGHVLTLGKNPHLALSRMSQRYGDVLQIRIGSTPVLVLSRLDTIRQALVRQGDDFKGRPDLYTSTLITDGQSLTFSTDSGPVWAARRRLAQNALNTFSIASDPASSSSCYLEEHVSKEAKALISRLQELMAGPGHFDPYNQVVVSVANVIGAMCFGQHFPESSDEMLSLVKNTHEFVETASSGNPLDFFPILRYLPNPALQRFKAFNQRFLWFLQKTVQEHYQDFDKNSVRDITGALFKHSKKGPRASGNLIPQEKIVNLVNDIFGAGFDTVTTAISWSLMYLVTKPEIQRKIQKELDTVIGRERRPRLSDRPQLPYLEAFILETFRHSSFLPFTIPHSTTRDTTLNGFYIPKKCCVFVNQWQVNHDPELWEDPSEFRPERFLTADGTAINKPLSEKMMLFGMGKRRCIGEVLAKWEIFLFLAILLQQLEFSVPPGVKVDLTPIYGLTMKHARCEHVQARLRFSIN
Chain of Cytochrome P450 1A2 (CYP1A2) (P05177 whole entry): as above
Chain of Adenosine receptor A1 (ADORA1) (P30542 whole entry): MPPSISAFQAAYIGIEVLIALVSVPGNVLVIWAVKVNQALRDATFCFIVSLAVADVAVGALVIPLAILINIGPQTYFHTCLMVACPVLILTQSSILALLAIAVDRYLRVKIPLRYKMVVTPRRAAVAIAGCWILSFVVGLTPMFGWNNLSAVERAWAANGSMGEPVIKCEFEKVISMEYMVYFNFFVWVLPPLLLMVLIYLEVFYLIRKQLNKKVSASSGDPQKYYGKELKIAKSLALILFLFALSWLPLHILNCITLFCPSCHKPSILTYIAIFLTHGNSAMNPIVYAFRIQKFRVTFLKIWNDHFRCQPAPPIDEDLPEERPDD
Chain of Phosphodiesterase 4D (PDE4D) (Q08499 whole entry): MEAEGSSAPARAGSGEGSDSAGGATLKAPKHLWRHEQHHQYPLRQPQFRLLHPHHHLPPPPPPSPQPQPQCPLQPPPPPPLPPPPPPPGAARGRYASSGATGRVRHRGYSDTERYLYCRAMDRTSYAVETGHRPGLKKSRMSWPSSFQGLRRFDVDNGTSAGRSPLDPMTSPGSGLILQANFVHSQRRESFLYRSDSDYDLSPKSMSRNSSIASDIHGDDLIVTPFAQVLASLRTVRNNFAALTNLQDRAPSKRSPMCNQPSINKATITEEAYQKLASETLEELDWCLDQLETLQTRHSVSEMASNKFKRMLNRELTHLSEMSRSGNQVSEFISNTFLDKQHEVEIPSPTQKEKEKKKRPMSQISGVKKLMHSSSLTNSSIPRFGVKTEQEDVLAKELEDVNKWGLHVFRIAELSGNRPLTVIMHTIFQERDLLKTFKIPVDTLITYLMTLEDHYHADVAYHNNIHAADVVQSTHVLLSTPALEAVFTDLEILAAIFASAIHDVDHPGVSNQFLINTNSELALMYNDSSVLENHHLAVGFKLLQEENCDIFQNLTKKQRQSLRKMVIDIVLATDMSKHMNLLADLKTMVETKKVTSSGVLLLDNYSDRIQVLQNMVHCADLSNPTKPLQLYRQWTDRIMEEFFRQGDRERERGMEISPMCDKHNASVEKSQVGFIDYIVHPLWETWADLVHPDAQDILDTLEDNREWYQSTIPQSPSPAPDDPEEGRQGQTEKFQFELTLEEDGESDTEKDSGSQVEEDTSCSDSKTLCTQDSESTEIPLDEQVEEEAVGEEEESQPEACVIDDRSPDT
Chain of Adrenergic receptor, alpha-2B (ADRA2B) (P18089 whole entry): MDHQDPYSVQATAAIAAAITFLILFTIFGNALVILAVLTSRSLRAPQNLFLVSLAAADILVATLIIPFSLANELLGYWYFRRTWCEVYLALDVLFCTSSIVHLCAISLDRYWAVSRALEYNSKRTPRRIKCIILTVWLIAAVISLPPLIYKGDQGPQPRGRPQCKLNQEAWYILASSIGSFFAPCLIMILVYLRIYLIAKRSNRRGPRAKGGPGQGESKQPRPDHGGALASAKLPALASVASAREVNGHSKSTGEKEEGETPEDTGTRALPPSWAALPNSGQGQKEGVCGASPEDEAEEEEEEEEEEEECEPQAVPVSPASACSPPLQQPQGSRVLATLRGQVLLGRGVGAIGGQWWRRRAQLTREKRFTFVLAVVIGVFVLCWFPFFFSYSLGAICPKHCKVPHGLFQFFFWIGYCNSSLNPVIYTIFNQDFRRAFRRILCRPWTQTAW
Chain of Mitogen-activated protein kinase 14 (MAPK14 / P38-alpha) (Q16539 whole entry): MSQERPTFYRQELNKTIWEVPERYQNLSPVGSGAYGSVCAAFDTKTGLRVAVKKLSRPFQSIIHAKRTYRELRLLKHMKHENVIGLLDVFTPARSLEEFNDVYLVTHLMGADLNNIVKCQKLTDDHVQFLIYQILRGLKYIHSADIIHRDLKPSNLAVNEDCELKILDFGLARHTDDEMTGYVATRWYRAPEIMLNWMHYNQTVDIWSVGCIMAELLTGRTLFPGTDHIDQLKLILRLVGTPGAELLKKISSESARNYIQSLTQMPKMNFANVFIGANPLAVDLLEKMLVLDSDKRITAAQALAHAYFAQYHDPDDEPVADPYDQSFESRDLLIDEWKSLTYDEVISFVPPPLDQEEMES
Chain of Histamine receptor 2 (H2) (P25021 whole entry): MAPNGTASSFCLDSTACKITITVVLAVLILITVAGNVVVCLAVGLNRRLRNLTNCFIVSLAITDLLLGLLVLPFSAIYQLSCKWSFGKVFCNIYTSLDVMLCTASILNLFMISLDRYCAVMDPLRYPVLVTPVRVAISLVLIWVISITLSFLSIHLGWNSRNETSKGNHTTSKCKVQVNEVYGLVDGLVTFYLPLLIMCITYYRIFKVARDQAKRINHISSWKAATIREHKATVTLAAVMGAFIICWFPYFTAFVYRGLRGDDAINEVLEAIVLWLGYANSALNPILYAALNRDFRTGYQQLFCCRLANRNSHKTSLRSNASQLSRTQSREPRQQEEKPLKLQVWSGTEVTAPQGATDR

What is called inhibition is the relative decrease from the control value, in per cent. With `CC(C)(C)c1ccc(CC[C@@](O)(CC(=O)O)C(=O)O)cc1` [Compound 2], the inhibition at 100 µM in data set [1], in data set [2], in data set [3], in data set [4] and in data set [5] was under 10% throughout. This compound yielded an inhibition at 3 µM against CYP1A2 of under 10%. In data set [6], the “interaction/inhibition of CYP1A2” value is given as “no significant interaction/inhibition”.
